Several values for one entry are separate records, joined by “and”; a condition that tells them apart may be missing. Equal entries are not always repeated. Where two headings read alike, the source gives them in different places.
Key:
Format in all cases: cell-based
human Nav1.5 = human Nav1.5 (Homo sapiens, UniProt Q14524); assay: Automated patch-clamp I-V relationship (voltage dependence of activation, Gmax), Nav1.5
Procedure: (§1) The voltage dependence of recombinant Nav channel-mediated currents exposed to PbTx-3 and brevenal was evaluated using current–voltage (I-V) relationships built for Ipeak and Ilate elicited by a standard stimulation protocol (25 ms, −100 to +60 mV, Vh −120 mV, 0.1 Hz).
(§2) The effects of extracellular exposure to PbTx-3 (PbTx-3o = 1 μM) and brevenal (Brevenalo = 10 μM) on the activation of Nav channels in neuronal and muscle cells were examined under normal intracellular ionic conditions. […] To investigate the possibility of overlapping binding of these compounds within Nav channels, Nav whole-cell currents were recorded using an intracellular solution supplemented with brevenal (Brevenali = 1 μM). After equilibration, extracellular PbTx-3o (1 μM) was applied and its modulatory effects over the current kinetics and voltage dependence of activation were compared.
(§3) Figure 4 and Figure 5 display representative current traces mediated by human recombinant Nav channels in control and upon exposure to PbTx-3 and brevenal. I-V plots from the normalized peak and late (when present) currents amplitudes (Ipeak/Ipeak^max and Ilate/Ipeak^max) were fitted to a Boltzmann function rendering the half-maximal activation potential (V0.5) and normalized macroscopic conductance (Gmax) parameters (see Section 4). The changes in V0.5 (ΔV0.5 = V0.5^Comp − V0.5^Ctr) and relative Gmax (Gmax^Rel = Gmax^Comp/Gmax^Ctr) observed in the presence of PbTx-3 and brevenal and control conditions were then calculated and compared for all assayed conditions.
(§4) Recording solutions: The extracellular solution contained (in mM) 140 NaCl, 5 KCl, 2 CaCl2, 2 MgCl2, 10 glucose, and 10 HEPES (pH 7.4 with NaOH, 298 ± 3 mOsmol/k g). Control intracellular solution (in mM): 60 CsF, 70 CsCl, 10 EGTA, 10 glucose, and 10 HEPES (pH 7.2 with CsOH, 285 ± 3 mOsmol/kg). Intracellular exposure to brevenal (1 μM) was achieved by including it in the control intracellular solution during chip filling.
(§5) Electrophysiology: Automated patch-clamp (APC) recordings were performed in a PatchLiner Octo (Nanion Technologies GmbH, Munich, Germany) equipped with two EPC-10 quadro patch-clamp amplifiers (HEKA Electronik, Lambrecht/Pfalz, Germany). PatchControl HT (Nanion) was used for cell capture, seal formation, and establishment of the whole-cell configuration, whilst voltage was controlled and currents were sampled with PatchMaster (HEKA Electronics). Recordings were performed under the whole-cell configuration using single-hole planar medium resistance NPC-16 chips (Rchip, resistance of ~2.5 MΩ) at room temperature (22–24 °C).
(§6) Peak I–V curves were fitted using:I(V) = (V − Vrev) × Gmax/(1 + exp ((V0.5 − V)/Vslope) where I is the macroscopic current, V is the command potential, Vrev is the reversal potential (mV), Gmax is the maximal conductance, V0.5 is the half-activation potential (mV), and Vslope is the slope factor (mV/e-fold).

human Nav1.2 [1] = target: T1, human Nav1.2 (Homo sapiens, UniProt Q99250); assay: Automated patch-clamp, concentration-response and inactivation fits, Nav1.2 in HEK293; conditions: for Nav1.2 yinf: single exponential fit
T1 sequence (Q99250 whole entry): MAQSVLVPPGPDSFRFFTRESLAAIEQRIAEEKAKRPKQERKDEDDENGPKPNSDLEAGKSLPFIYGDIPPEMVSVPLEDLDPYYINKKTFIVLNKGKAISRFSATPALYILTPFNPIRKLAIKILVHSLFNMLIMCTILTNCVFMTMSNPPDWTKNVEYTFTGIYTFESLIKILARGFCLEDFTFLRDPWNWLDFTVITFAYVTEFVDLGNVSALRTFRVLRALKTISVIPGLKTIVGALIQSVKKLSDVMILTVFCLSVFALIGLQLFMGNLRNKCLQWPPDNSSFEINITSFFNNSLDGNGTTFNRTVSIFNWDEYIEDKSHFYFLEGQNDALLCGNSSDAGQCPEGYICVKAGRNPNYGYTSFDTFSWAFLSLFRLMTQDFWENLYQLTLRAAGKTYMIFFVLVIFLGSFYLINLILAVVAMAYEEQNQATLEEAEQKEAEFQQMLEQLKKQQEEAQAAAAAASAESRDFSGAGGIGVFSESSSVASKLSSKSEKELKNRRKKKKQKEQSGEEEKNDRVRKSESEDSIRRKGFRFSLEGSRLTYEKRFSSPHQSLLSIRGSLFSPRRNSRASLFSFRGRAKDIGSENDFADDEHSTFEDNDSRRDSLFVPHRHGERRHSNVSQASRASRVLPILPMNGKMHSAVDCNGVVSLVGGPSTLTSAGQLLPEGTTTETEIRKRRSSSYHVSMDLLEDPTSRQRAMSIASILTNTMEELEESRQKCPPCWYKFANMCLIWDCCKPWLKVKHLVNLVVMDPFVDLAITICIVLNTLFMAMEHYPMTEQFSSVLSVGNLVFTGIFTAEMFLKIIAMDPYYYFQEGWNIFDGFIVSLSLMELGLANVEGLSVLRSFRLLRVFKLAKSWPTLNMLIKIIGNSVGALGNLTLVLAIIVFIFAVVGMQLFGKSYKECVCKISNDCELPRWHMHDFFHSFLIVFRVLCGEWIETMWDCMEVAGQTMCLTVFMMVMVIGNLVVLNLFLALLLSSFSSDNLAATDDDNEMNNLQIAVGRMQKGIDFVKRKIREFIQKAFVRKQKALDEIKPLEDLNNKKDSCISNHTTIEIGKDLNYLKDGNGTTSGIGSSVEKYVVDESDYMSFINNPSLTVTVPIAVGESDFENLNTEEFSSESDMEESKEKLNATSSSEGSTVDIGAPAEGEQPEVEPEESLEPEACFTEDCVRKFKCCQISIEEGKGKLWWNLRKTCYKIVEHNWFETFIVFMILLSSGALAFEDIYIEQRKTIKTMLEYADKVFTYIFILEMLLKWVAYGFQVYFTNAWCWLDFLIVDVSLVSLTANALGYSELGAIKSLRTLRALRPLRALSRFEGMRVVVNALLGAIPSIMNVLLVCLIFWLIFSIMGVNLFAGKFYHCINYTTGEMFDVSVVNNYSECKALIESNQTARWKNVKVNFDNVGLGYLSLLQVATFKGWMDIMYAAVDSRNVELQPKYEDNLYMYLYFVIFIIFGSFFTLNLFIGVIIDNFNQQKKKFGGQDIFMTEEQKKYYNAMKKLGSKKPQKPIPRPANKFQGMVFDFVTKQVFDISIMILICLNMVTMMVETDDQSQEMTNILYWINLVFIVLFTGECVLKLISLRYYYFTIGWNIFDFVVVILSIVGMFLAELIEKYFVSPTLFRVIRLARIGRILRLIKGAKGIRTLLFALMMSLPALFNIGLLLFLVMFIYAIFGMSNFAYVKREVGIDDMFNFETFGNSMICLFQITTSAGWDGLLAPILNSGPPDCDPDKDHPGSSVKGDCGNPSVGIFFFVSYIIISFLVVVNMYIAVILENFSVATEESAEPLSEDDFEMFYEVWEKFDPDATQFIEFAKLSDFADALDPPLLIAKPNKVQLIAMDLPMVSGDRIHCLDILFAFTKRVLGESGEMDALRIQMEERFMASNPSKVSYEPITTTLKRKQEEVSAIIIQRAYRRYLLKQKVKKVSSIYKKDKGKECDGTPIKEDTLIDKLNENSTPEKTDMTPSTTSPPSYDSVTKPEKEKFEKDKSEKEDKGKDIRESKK
Procedure: (§7) Functional modulation of recombinant human voltage-gated sodium (Nav) channels exposed to marine PbTx-3 and brevenal was assessed by automated patch-clamp electrophysiology. Neuronal Nav1.2 (CNS) and Nav1.7 (PNS), in addition to muscle Nav1.4 (skeletal) and Nav1.5 (cardiac) sodium channels, were patch-clamped in mammalian cells. Whole-cell currents mediated by human Nav1.4 and Nav1.7 overexpressed in CHO-K1 cells, as well as human Nav1.2 and Nav1.5 overexpressed in HEK293 cells, were recorded at room temperature. Currents were elicited by 25 ms test pulses to −20 mV from a holding potential (Vh) of −120 mV, delivered for 5 min at 0.1 Hz, after each full-bath solution exchange to allow current amplitude and kinetics to reach a steady state.
(§8) Current traces were scaled to maximal Ipeak and are presented as insets in Figure 2 to underline the effects (or lack thereof) of PbTx-3 and brevenal on the current kinetics of the four Nav isoforms studied. Inactivation time constants (τinact) in control and the presence of PbTx-3 and brevenal were estimated by exponential fits (see Methods) to the current decay between 15% and 85% of the depolarizing pulse. Single exponential fits adequately described τinact for the neuronal and the skeletal muscle Nav isoforms, whereas a double exponential fit was required to approximate open channel inactivation of the cardiac Nav current. Consistent with the enhancement of Ilate observed for Nav1.2, Nav1.4, and Nav1.5 in the presence of PbTx-3, significant concentration-dependent increases in the Yinf asymptote were detected (Tables S1–S3). These were mirrored by brevenal exposure in Nav1.2- and Nav1.4-mediated currents. Nevertheless, the estimated τinacts appeared insensitive to PbTx-3 and brevenal modification, with the notable exception of Nav1.4, for which high concentrations of PbTx-3 and brevenal caused a measurable slowing of the open channel inactivation time constant (Table S2).
as §4
(§9) HEK293 cells heterologously expressing human Nav1.2 (Scottish Biomedical, a kind gift from the Petrous lab, Florey Institute of Neuroscience and Mental Health, Melbourne, VIC Australia) and Nav1.5 (ChanTest Corp., Cleveland, OH, USA) were cultured in DMEM containing 10% v/v FBS and selection antibiotics to enable stable expression as per the manufacturer’s recommendation. CHOK1 expressing Nav1.4 and Nav1.7 (ChanTest) was cultured in DMEM/F12 containing 10% v/v FBS and selection antibiotics supporting stable expression as recommended by the manufacturer. Cells were maintained in a humidified 5% CO2 incubator at 37 °C, grown in T25 flasks to 70–80% confluence, and passaged every 3–4 days using TrypLE Express (Invitrogen). After harvesting with TrypLE, cells were resuspended to 10^5 cells/mL in cold extracellular solution and allowed to recover for 30 min at 4 °C before recording.
as §5
(§10) Cells between passages 6 and 12 were used. […]

human Nav1.7 = human Nav1.7 (Homo sapiens, UniProt Q15858); assay: Automated patch-clamp, concentration-response and inactivation fits, Nav1.7 in CHO-K1
Procedure: as §7, §8, §4, §9, §5, §10

human Nav1.2 [2] = target: T1, human Nav1.2; assay: Automated patch-clamp I-V relationship (voltage dependence of activation, Gmax), Nav1.2
Procedure: as §1, §2, §3, §4, §5, §6

human Nav1.4 = human Nav1.4 (Homo sapiens, UniProt P35499); assay: Automated patch-clamp, concentration-response and inactivation fits, Nav1.4 in CHO-K1; conditions: for Nav1.4 yinf / Nav1.4 τ inact: n = 4
Procedure: as §7, §8, §4, §9, §5, §10

[3] = test pulse −20 mV, Vh −120 mV, extracellular, n = 5
[4] = extracellular brevenal 10 μM, n = 5

human Nav1.5, sequence (Q14524 whole entry): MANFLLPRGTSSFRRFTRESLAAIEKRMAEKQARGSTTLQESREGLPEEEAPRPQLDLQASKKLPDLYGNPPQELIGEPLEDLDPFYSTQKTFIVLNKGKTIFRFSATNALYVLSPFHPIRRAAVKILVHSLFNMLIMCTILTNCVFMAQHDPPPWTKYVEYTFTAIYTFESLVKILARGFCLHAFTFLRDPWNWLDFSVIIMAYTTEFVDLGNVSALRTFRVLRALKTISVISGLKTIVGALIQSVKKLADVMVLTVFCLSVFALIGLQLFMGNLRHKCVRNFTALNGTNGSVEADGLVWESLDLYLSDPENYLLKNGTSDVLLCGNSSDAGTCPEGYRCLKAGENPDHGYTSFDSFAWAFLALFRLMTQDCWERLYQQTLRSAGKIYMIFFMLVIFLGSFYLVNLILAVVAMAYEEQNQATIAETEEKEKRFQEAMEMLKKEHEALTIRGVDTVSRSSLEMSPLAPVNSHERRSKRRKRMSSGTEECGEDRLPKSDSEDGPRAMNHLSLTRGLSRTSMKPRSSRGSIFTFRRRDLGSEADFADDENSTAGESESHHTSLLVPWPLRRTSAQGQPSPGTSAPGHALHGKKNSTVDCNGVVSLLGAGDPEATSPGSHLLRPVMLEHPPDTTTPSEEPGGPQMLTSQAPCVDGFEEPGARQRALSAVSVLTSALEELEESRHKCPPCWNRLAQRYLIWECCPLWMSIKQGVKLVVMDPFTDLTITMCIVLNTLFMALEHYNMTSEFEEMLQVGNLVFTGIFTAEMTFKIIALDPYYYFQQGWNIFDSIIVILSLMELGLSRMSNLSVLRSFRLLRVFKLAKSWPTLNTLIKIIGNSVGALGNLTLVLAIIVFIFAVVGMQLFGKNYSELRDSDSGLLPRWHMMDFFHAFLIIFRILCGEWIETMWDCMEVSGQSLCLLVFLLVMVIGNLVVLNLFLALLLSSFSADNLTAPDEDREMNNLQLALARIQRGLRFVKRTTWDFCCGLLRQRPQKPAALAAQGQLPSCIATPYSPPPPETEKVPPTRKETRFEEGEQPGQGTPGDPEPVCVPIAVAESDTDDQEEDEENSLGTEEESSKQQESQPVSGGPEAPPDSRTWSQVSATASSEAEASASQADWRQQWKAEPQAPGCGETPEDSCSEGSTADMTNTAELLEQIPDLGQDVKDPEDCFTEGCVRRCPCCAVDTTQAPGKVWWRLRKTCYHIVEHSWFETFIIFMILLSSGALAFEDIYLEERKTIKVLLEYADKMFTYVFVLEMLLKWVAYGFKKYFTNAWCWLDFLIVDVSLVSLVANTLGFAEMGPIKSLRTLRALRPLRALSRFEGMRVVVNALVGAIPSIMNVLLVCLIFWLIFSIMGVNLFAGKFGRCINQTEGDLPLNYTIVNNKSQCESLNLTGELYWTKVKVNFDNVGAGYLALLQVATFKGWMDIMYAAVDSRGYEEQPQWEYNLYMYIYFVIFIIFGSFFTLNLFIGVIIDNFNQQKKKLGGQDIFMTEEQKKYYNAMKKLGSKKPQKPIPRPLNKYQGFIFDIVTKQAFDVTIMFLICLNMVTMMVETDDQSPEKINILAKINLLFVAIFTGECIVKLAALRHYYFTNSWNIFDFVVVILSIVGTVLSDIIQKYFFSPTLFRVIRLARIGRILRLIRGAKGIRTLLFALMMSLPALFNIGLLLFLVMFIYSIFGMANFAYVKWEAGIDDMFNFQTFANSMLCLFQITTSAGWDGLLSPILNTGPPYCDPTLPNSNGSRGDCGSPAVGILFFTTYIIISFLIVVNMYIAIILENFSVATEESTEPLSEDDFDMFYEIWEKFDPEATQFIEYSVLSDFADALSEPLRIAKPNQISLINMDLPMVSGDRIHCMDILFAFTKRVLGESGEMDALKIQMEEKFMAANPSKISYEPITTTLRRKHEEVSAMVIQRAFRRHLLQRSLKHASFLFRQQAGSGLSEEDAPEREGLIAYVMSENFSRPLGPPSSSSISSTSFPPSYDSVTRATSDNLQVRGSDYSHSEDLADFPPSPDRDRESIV

C=C/C=C\CC[C@H]1O[C@H]2CC[C@@]3(C)O[C@H]4[C@@H](O)C[C@@]5(C)O[C@@H](CC/C=C(C)/C(C)=C/C=O)[C@@H](C)C[C@H]5O[C@@H]4C[C@@H]3O[C@@H]2CC[C@@]1(C)O [Brevenal]
ΔV0.5 of Nav1.5 activation (human Nav1.5; Brevenalo 10 μM, n = 7): 0.1 ± 1.4 mV | relative Gmax of Nav1.5 (human Nav1.5; brevenal 10 μM extracellular, n = 7): 0.3 ± 0.1 | Nav1.2 τ inact (human Nav1.2 [1]; 10^-5 M, n = 4): 0.75 ± 0.10 ms | Nav1.2 yinf (human Nav1.2 [1]; 10^-5 M, n = 4): 0.12±0.06 | Nav1.2 τ inact (human Nav1.2 [1]; 10^-6 M, n = 4): 0.65 ± 0.08 ms | Nav1.2 yinf (human Nav1.2 [1]; 10^-6 M, n = 4): 0.10±0.07 | Nav1.2 τ inact (human Nav1.2 [1]; 10^-9 M, n = 4): 0.74 ± 0.8 ms | Nav1.2 yinf (human Nav1.2 [1]; 10^-9 M, n = 4): 0.08±0.04 | EC50 (human Nav1.2 [1]; inhibition of peak current, −20 mV, Vh −120 mV, n = 5, read-out: Nav1.2 Ipeak EC50): 18 nM | Nav1.2 Ipeak FC^Max (maximal fold change) (human Nav1.2 [1]; [3]): 0.6 ± 0.1 | Nav1.7 yinf (human Nav1.7; 10^-5 M, n = 4): 0.07±0.01 | Nav1.7 τ inact (human Nav1.7; 10^-5 M, n = 4): 0.93 ± 0.09 ms | Nav1.7 yinf (human Nav1.7; 10^-6 M, n = 4): 0.07±0.01 | Nav1.7 τ inact (human Nav1.7; 10^-6 M, n = 4): 0.85 ± 0.06 ms | Nav1.7 yinf (human Nav1.7; 10^-9 M, n = 4): 0.07±0.01 | Nav1.7 τ inact (human Nav1.7; 10^-9 M, n = 4): 0.76 ± 0.05 ms | modulation of Nav1.7 currents (human Nav1.7; up to 30 μM): did not modulate | Nav1.2 V0.5 (human Nav1.2 [2]; Ctro:Brevenali, intracellular brevenal 1 μM, n = 4, control −22.6 ± 1.9 mV): −43.9 ± 2.3 mV | decrease in Nav1.2 Gmax (human Nav1.2 [2]; extracellular brevenal 10 μM): ~ 40% | Gmax^Rel of Nav1.2 (human Nav1.2 [2]; [4]): 0.6 ± 0.1 | ΔV0.5 of Nav1.2 activation (depolarizing shift) (human Nav1.2 [2]; [4]): 6.1 ± 1.0 mV | leftward shift in Nav1.2 V0.5 vs control intracellular (human Nav1.2 [2]; intracellular dialysis with brevenal 1 μM): ~ 20 mV | Nav1.4 yinf (human Nav1.4; 10^-5 M): 0.19±0.03 | Nav1.4 τ inact (human Nav1.4; 10^-5 M): 1.16 ± 0.15 ms | Nav1.4 yinf (human Nav1.4; 10^-6 M): 0.14±0.03 | Nav1.4 yinf (human Nav1.4; 10^-9 M): 0.09±0.01 | Nav1.4 τ inact (human Nav1.4; 10^-9 M): 0.71 ± 0.11 ms | fold lower potency than PbTx-3 at enhancing Nav1.4-mediated Ilate (human Nav1.4; Brevenal EC50 vs PbTx-3 EC50): ~ 25 fold | EC50 (human Nav1.4; enhancement of late current, −20 mV, Vh −120 mV, n = 5, read-out: Nav1.4 Ilate EC50): 100 nM | EC50 (human Nav1.4; inhibition of peak current, −20 mV, Vh −120 mV, n = 5, read-out: Nav1.4 Ipeak EC50): 7.7 nM | Nav1.4 Ilate FC^Max (maximal fold change) (human Nav1.4; [3]): 4.1 ± 0.8 | Nav1.4 Ipeak FC^Max (maximal fold change) (human Nav1.4; [3]): 0.1 ± 0.1 | Nav1.4 Ilate FC^Max (maximal fold change) (human Nav1.4; test pulse −20 mV, Vh −120 mV, extracellular, n = 5, listed as brevenal): 4.1

C=C(CO)C[C@@H]1C[C@H](O)[C@]2(C)OC3CC4OC5C[C@]6(C)O[C@]7(C)CCC8OC9C[C@]%10(C)OC%11C(C)=CC(=O)OC%11CC%10OC9C[C@@H](C)C8OC7CC6O[C@@]5(C)C/C=C\C4OC3CC2O1 (some centres unmarked) [PbTx-3, Brevetoxin PbTx-3]
Gmax^Rel of Nav1.5 (human Nav1.5): 1.2 ± 0.1 | depolarizing shift in V0.5 of Nav1.5 (human Nav1.5): 8.7 ± 1.2 mV | depolarizing shift ΔV0.5 of Nav1.5 (human Nav1.5): 10.8 ± 2.0 mV | relative Gmax of Nav1.5 (human Nav1.5): 0.4 ± 0.04 | Nav1.2 Ilate FC^Max (maximal fold change) (human Nav1.2 [1]): 3.0 ± 0.1 | Nav1.2 τ inact (human Nav1.2 [1]): 0.88 ± 0.1 ms and 0.76 ± 0.05 ms and 0.64 ± 0.14 ms | EC50 (human Nav1.2 [1]; read-out: Nav1.2 Ilate EC50): 0.0053 nM | Nav1.7 Ilate FC^Max (maximal fold change) (human Nav1.7): 0.6 ± 0.1 | Nav1.7 Ipeak FC^Max (maximal fold change) (human Nav1.7): 0.4 ± 0.1 | Nav1.7 yinf (human Nav1.7): 0.04±0.01 | Nav1.7 τ inact (human Nav1.7): 0.60 ± 0.05 ms and 0.63 ± 0.04 ms and 0.66 ± 0.11 ms | IC50 (human Nav1.7; read-out: IC50, inhibition of Nav1.7 Ilate): 34 nM | EC50 (human Nav1.7; read-out: Nav1.7 Ipeak EC50): 0.16 nM | Gmax^Rel of Nav1.2 (human Nav1.2 [2]): 0.9 ± 0.1 | Nav1.2 Ilate as % of Ipeak (human Nav1.2 [2]): ~ 40% | ΔV0.5 of Nav1.2 activation (human Nav1.2 [2]): 1.5 ± 1.0 mV | Nav1.4 Ipeak FC^Max (maximal fold change) (human Nav1.4): 0.03 ± 0.03 | EC50 (human Nav1.4; read-out: EC50, enhancement of Nav1.4-mediated Ilate): 4 nM | EC50 (human Nav1.4; read-out: Nav1.4 Ilate EC50): 4.1 nM | EC50 (human Nav1.4; read-out: Nav1.4 Ipeak EC50): 0.91 nM

Source: PMC10382042, “Brevetoxin versus Brevenal Modulation of Human Nav1 Channels” (Marine Drugs, 2023)
